Laboratory results taken from DBAASP.
In brackets after ≈: the same amount, converted by molar mass. Several values for one entry are separate records, joined by “and”; a condition that tells them apart may be missing. Equal entries are not always repeated. One block for each molecule: values may come before it.

Experiments:
Experiment in all cases: ≥ marks a high value that may be exact or a test limit, other limits are often not marked, values filed in µg/mL are converted to µM
[1] = system: Pseudomonas aeruginosa
[2] = system: Escherichia coli E423-17
[3] = system: Pseudomonas aeruginosa ATCC 19660
[4] = system: Staphylococcus aureus USA 300 LAC
[5] = system: Pseudomonas aeruginosa PAO1
[6] = system: Staphylococcus aureus T7/20
[7] = system: Enterobacter cloacae HNTCC 53001
[8] = system: Enterococcus faecalis ATCC 29212
[9] = system: Staphylococcus epidermidis RP62A
[10] = system: Klebsiella pneumoniae KK3 9904
[11] = system: Pseudomonas aeruginosa ATCC 27853
[12] = system: Escherichia coli ATCC 25922
[13] = system: Candida albicans ATCC 90028
[14] = system: Staphylococcus aureus NCTC 8325
[15] = system: Staphylococcus aureus ATCC 43300
[16] = system: Bordetella bronchiseptica CUN 11844-99
[17] = system: Pseudomonas aeruginosa CUN 4158-02
[18] = system: Staphylococcus aureus ATCC 25923
[19] = system: Acinetobacter baumannii ATCC 19606
[20] = system: Staphylococcus aureus CUN 3792-99
[21] = system: Stenotrophomonas maltophilia CUN 3998-00
[22] = system: Candida krusei CK802/97
[23] = system: Candida glabrata CG196/98IDE
[24] = system: Bacillus subtilis 168
[25] = system: Staphylococcus aureus
[26] = system: Escherichia coli B
[27] = system: Bacillus subtilis CCT 2471
[28] = system: Pseudomonas aeruginosa ATCC 15442
[29] = system: Escherichia coli CCT 1371
[30] = system: Staphylococcus aureus ATCC 6538
[31] = system: Staphylococcus aureus ATCC 25293
[32] = system: Klebsiella aerogenes ATCC 13048
[33] = system: Bacillus cereus ATCC 11778
[34] = system: Staphylococcus aureus ATCC 29213
[35] = system: Salmonella enterica subsp. enterica serovar Typhimurium ATCC 14028
[36] = system: Proteus mirabilis
[37] = system: Bacillus thuringiensis
[38] = system: Staphylococcus saprophyticus
[39] = system: Candida albicans ATCC 18804
[40] = system: Staphylococcus aureus TK784
[41] = system: Micrococcus luteus ATCC 10240
[42] = system: Bacillus subtilis ATCC 6633
[43] = system: Shigella dysenteriae ATCC 9752
[44] = system: Staphylococcus aureus ATCC 6538P
[45] = system: Staphylococcus epidermidis ATCC 12228
[46] = system: Klebsiella pneumoniae ATCC 10031

Compound: CC[C@H](C)[C@H](NC(=O)[C@H](CCCNC(=N)N)NC(=O)[C@H](CCC(N)=O)NC(=O)[C@@H](NC(=O)[C@@H](NC(=O)[C@H](CCCNC(=N)N)NC(=O)[C@H](CCCCN)NC(=O)[C@@H](N)Cc1ccccc1)[C@@H](C)CC)C(C)C)C(=O)N[C@@H](CCCCN)C(=O)N[C@@H](CC(=O)O)C(=O)N[C@@H](Cc1ccccc1)C(=O)N[C@@H](CC(C)C)C(=O)N[C@@H](CCCNC(=N)N)C(=O)N[C@@H](CC(N)=O)C(=O)N[C@@H](CC(C)C)C(=O)N[C@H](C=O)C(C)C [FKRIVQRIKDFLRNLV]
MIC [1]: 48.9 µM and 97.7 µM
MIC [2]: 5.66 µM and 4 µM
MIC [3]: ≥ 97.7 µM
MIC [4]: 4 µM (≈ 8.12 µg/mL)
MIC [5]: 48.9 µM and 97.7 µM

Compound: CC[C@H](C)[C@H](NC(=O)[C@H](CO)NC(=O)[C@H](CC(C)C)NC(=O)[C@@H](N)Cc1ccccc1)C(=O)N[C@H](C(=O)N[C@@H](C)C(=O)N[C@@H](CCCCN)C(=O)N[C@H](C(=O)N[C@@H](CC(C)C)C(=O)NCC(=O)N[C@@H](CO)C(=O)N[C@@H](CC(C)C)C(=O)N[C@@H](Cc1ccccc1)C(N)=O)C(C)C)[C@@H](C)CC [FLSIIAKVLGSLF]
MIC [6]: 10 µM (≈ 14.1 µg/mL)
MIC [7]: ≥ 160 µM
MIC [8]: 20 µM (≈ 28.1 µg/mL)
MIC [9]: 5 µM (≈ 7.03 µg/mL)
MIC [10]: ≥ 160 µM
MIC [11]: > 160 µM
MIC [12]: > 160 µM
MIC [13]: ≥ 160 µM
MIC [14]: 5 µM (≈ 7.03 µg/mL)

Compound: NCCCC[C@H](NC(=O)CNC(=O)[C@H](CCCCN)NC(=O)[C@H](Cc1ccccc1)NC(=O)[C@H](CCCCN)NC(=O)[C@H](Cc1c[nH]c2ccccc12)NC(=O)[C@H](CCCN=C(N)N)NC(=O)[C@H](Cc1ccccc1)NC(=O)[C@H](CCCN=C(N)N)NC(=O)[C@H](CCCN=C(N)N)NC(=O)[C@H](Cc1ccc(O)cc1)NC(=O)[C@H](CCCCN)NC(=O)[C@H](CCCCN)NC(=O)[C@H](CS)NC(=O)CN)C(=O)N[C@@H](Cc1ccccc1)C(=O)N[C@@H](Cc1c[nH]c2ccccc12)C(=O)N[C@@H](Cc1ccccc1)C(=O)N[C@@H](Cc1c[nH]c2ccccc12)C(N)=O [GCKKYRRFRWKFKGKFWFW]
MIC [15]: 12.1 µM (≈ 32 µg/mL)
MIC [16]: 24.1 µM (≈ 64 µg/mL)
MIC [17]: ≥ 48.2 µM
MIC [18]: 24.1 µM (≈ 64 µg/mL)
MIC [19]: 24.1 µM (≈ 64 µg/mL)
MIC [20]: 24.1 µM (≈ 64 µg/mL)
MIC [11]: 24.1 µM (≈ 64 µg/mL)
MIC [12]: 24.1 µM (≈ 64 µg/mL)
MIC [21]: ≥ 48.2 µM

Compound: CC[C@H](C)[C@H](N)C(=O)N[C@@H](Cc1ccccc1)C(=O)NCC(=O)N[C@@H](C)C(=O)N[C@H](C(=O)N[C@@H](Cc1c[nH]c2ccccc12)C(=O)N[C@@H](CC(N)=O)C(=O)NCC(=O)N[C@H](C(=O)N[C@@H](CCCCN)C(=O)N[C@@H](CO)C(=O)N[C@@H](CC(C)C)C(=O)N[C@@H](Cc1ccccc1)C(=O)O)[C@@H](C)CC)[C@@H](C)CC [IFGAIWNGIKSLF]
MIC [27]: 6.8 µM (≈ 9.97 µg/mL)
MIC [28]: ≥ 150 µM
MIC [29]: 3.4 µM (≈ 4.98 µg/mL)
MIC [30]: 3.4 µM (≈ 4.98 µg/mL)
MIC [31]: 0.7 µM (≈ 1.03 µg/mL)
MIC [32]: ≥ 68.2 µM
MIC [33]: ≥ 68.2 µM
MIC [11]: 68.3 µM (≈ 100 µg/mL)
MIC [34]: 34.1 µM (≈ 50 µg/mL)
MIC [35]: 68.2 µM (≈ 100 µg/mL)
MIC [36]: ≥ 150 µM
MIC [37]: 17.1 µM (≈ 25.1 µg/mL)
MIC [38]: 0.7 µM (≈ 1.03 µg/mL)
MIC [39]: 12.5 µM (≈ 18.3 µg/mL)

Continued, values first:

MIC [6]: 10 µM (≈ 14.9 µg/mL)
MIC [7]: ≥ 40 µM
MIC [8]: 40 µM (≈ 59.6 µg/mL)
MIC [9]: 10 µM (≈ 14.9 µg/mL)
MIC [10]: ≥ 80 µM
MIC [11]: 160 µM (≈ 239 µg/mL)
MIC [12]: > 160 µM
MIC [13]: ≥ 160 µM
MIC [14]: 5 µM (≈ 7.45 µg/mL)
Compound: CSCC[C@H](NC(=O)[C@@H](NC(=O)[C@@H](NC(=O)[C@H](CC(C)C)NC(=O)[C@@H]1CCCN1C(=O)[C@H](CC(C)C)NC(=O)[C@@H](N)Cc1ccccc1)C(C)C)[C@@H](C)O)C(=O)N[C@@H](CC(C)C)C(=O)N[C@@H](CC(C)C)C(=O)NCC(=O)N[C@@H](CCCCN)C(=O)N[C@@H](CC(C)C)C(=O)N[C@@H](Cc1ccccc1)C(N)=O [FLPLVTMLLGKLF]

MIC [22]: 28 µM and 13 µM
MIC [1]: 13.1 µM (≈ 18.9 µg/mL)
MIC [23]: ≥ 87 µM
MIC [24]: 0.8 µM (≈ 1.15 µg/mL)
MIC [25]: 15 µM (≈ 21.6 µg/mL)
MIC [26]: 2.3 µM (≈ 3.32 µg/mL)
Compound: CC[C@H](C)[C@H](NC(=O)[C@H](CC(C)C)NC(=O)[C@H](CCCCN)NC(=O)CNC(=O)[C@H](CC(C)C)NC(=O)[C@@H](NC(=O)[C@H](CCCCN)NC(=O)[C@H](CCCCN)NC(=O)[C@H](Cc1c[nH]c2ccccc12)NC(=O)[C@H](CCSC)NC(=O)CN)[C@@H](C)CC)C(=O)N[C@@H](CCCN=C(N)N)C(N)=O [GMWKKILGKLIR]

MIC [40]: 11.3 µM (≈ 16 µg/mL)
MIC [41]: 2.84 µM (≈ 4 µg/mL)
MIC [11]: 2.84 µM (≈ 4 µg/mL)
MIC [12]: 2.84 µM (≈ 4 µg/mL)
MIC [42]: 1.42 µM (≈ 2 µg/mL)
MIC [35]: 2.84 µM (≈ 4 µg/mL)
MIC [43]: 1.42 µM (≈ 2 µg/mL)
MIC [44]: 1.42 µM (≈ 2 µg/mL)
MIC [45]: 1.42 µM (≈ 2 µg/mL)
MIC [46]: 2.84 µM (≈ 4 µg/mL)
Compound: CC(C)C[C@H](NC(=O)[C@H](CC(C)C)NC(=O)[C@H](CCCCN)NC(=O)[C@H](CCCCN)NC(=O)[C@H](CC(C)C)NC(=O)[C@H](CC(C)C)NC(=O)[C@H](CCCCN)NC(=O)[C@H](CCCCN)NC(=O)[C@@H](N)CC(C)C)C(=O)N[C@@H](CCCCN)C(=O)N[C@@H](Cc1c[nH]c2ccccc12)C(N)=O [LKKLLKKLLKW]
